How the values were obtained:
[1] = target: carbonic anhydrase II (CA-II) (Bos taurus, UniProt P00921); test: Carbonic anhydrase assay (p-nitrophenyl acetate hydrolysis); type: biochemical, bovine; conditions: for IC50: bovine enzyme, mean ± SEM
Procedure: As mentioned previously, the inhibition of carbonic anhydrase was investigated with adjustments. The method relies on the fact that carbonic anhydrase hydrolyzes p-nitrophenyl acetate into yellow-colored p-nitrophenol, which is then quantified spectrophotometrically. Each well contained 120 µL of a 50 mM Tris-sulfate buffer (pH 7.6, containing 0.1 mM ZnCl2), 20 µL of an inhibitor, and 20 µL of bovine enzyme (50 U). The materials were properly mixed and incubated for 10 min at 25 degrees Celsius. The substrate p-nitrophenyl acetate was synthesized (6 mM stock using <5% acetonitrile in buffer and used fresh each time) and 40 µL was added per well to achieve a concentration of […] per well. The total volume of the reaction was 200 µL. […] Each concentration was assessed in three distinct tests. The IC50 values were calculated with GraphPad Prism 5.0 [38] and nonlinear regression (GraphPad, San Diego, CA USA). (2) Inhibition (%)=B−S/B×100
Here, B and S represent the absorbances of the blank and sample, respectively.

[2] = target: carbonic anhydrase (Bos taurus, UniProt P00921); test: Kinetic analysis of carbonic anhydrase inhibition (Lineweaver–Burk plots); type: biochemical, bovine
Description: Based on the IC50 values, the most efficacious carbonic anhydrase inhibitor, compound 6e, was designated for kinetic investigation. Lineweaver-–Burk plots and a second plot are depicted in (Figure 3A,B). At various concentrations of the inhibitor and substrate, Lineweaver–Burk plots (plot of 1/V vs. 1/[S]) were generated to determine the kind of inhibition. […] The EI dissociation constant was shown by the second plot (Figure 3B) of the slope vs. the concentration of 6e.
To investigate the kinetic properties of compound 6e, identical experiments to those described in previous study were performed. The compound 6e was selected based on its IC50 value at various concentrations (0.00, 0.78, 1.55, and 3.11 µM, respectively), whereas the substrate concentrations (p-nitrophenyl acetate) were varied from (2, 1, 0.5, 0.25 and 0.125 mM). Other experimental settings mirrored those mentioned in the section under “Carbonic anhydrase assay”. The maximum starting velocity was estimated using the first linear section of absorbance up to 10 min at 1 min intervals. To evaluate the kind of enzyme inhibition, Lineweaver–Burk plots depicting the inverse of velocities (1/V) vs. the inverse of substrate concentration (1/[S] mM^−1) were utilized. […] Version 11 of Microsoft Excel was used to create graphs.

carbonic anhydrase II (CA-II), sequence (P00921 whole entry): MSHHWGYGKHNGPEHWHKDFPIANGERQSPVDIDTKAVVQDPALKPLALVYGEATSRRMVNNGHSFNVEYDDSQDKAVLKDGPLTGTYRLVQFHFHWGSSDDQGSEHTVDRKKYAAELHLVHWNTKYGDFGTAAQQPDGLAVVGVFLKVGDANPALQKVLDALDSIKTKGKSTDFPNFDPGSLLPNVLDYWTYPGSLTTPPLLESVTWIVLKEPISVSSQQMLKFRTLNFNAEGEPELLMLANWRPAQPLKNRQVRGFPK
carbonic anhydrase, sequence (P00921 whole entry): as above

Row | melting point | IC50 [1] | activity reduced, fold, in comparison to the inhibitory value of derivative 6g ([1]; relative to 6g) | kind of inhibition ([2]; Lineweaver–Burk plots) | Ki ([2]; from slope vs. concentration of 6e, substrate p-nitrophenyl acetate, read-out: Ki (EI dissociation constant)) | SMILES
1 | 235 to 237 °C | 6.5 ± 0.854 µM | – | – | – | CCOC(=O)/C=C1\S/C(=N\C(=O)c2ccc(C)cc2)N(c2cccc(CC)c2)C1=O [Compound 6d]
2 | 235 to 237 °C | 5.03 ± 0.659 µM | approximately 2.9 fold | – | – | CCOC(=O)/C=C1\S/C(=N\C(=O)c2ccccc2Cl)N(c2cccc(CC)c2)C1=O [Compound 6i]
3 | 235 to 237 °C | 1.78 ± 0.095 µM | – | – | – | CCOC(=O)/C=C1\S/C(=N\C(=O)c2cccc(Cl)c2)N(c2cccc(CC)c2)C1=O [Compound 6g]
4 | 235 to 237 °C | 67.5 ± 2.71 µM | – | – | – | CCOC(=O)/C=C1\S/C(=N\C(=O)c2ccc(Cl)cc2Cl)N(c2cccc(CC)c2)C1=O [Compound 6b]
5 | 235 to 237 °C | 9.52 ± 1.08 µM | – | – | – | CCOC(=O)/C=C1\S/C(=N\C(=O)c2ccccc2)N(c2cccc(CC)c2)C1=O [Compound 6f]
6 | 235 to 237 °C | 60.1 ± 1.92 µM | – | – | – | CCOC(=O)/C=C1\S/C(=N\C(=O)c2ccccc2Br)N(c2cccc(CC)c2)C1=O [Compound 6c]
7 | 235 to 237 °C | 1.54 ± 0.016 µM | – | competitive mechanism | 2.2 µM | CCOC(=O)/C=C1\S/C(=N\C(=O)c2cccc(C)c2)N(c2cccc(CC)c2)C1=O [Compound 6e]
8 | 235 to 237 °C | 4.45 ± 0.329 µM | – | – | – | CCOC(=O)/C=C1\S/C(=N\C(=O)c2ccc(F)cc2)N(c2cccc(CC)c2)C1=O [Compound 6j]
9 | 235 to 237 °C | 1.66 ± 0.095 µM | – | – | – | CCOC(=O)C=C1SC(=NC(=O)c2ccccc2C)N(c2cccc(CC)c2)C1=O [Compound 6a]
10 | 235 to 237 °C | 11 ± 1.28 µM | – | – | – | CCOC(=O)/C=C1\S/C(=N\C(=O)c2ccccc2F)N(c2cccc(CC)c2)C1=O [Compound 6h]
